Experimental data from patent US20030224973A1, “Minimising body gain in insulin treatment” (priority 2002, published 2003).
Read-outs that look alike come from different tables or passages of the source.

Assays:
[1] = system: adult patients with type 1 diabetes; experiment: Example 1 b): 6-month extension trial (12 months of treatment), insulin detemir vs NPH insulin, human soluble insulin as meal related insulin; details: for ANOVA of weight after 12 months of treatment, ITT, Mean (least square mean): human soluble insulin as meal related insulin; for body weight at End of trial, Mean: End of trial (12 months)
Text: (§1) All patients were on a basal (twice-daily)-bolus regimen with human soluble insulin as meal related insulin:
(§2) The analysis is based upon an ANOVA model with treatment and country as fixed effects and weight at baseline as covariate.

[2] = system: patients with type 1 diabetes; details: for ANOVA of weight after 6 months of treatment, ITT, Mean (least square mean): type 1 diabetes, human soluble insulin as bolus, baseline weight as covariate
Text: Material and Methods: A total of 460 patients with no clinically significant diseases or diabetic complications were exposed (287 men and 173 women).
as §2

[3] = system: patients with type 1 diabetes; experiment: Example 6: 16-week three-group trial, insulin detemir at 12-hour intervals, insulin detemir morning and bedtime, NPH morning and bedtime, insulin aspart at meals; assay type: in vivo, human; details: for average body weight gained: Morn_Bed groups; for body weight at Baseline, Mean / body weight at End of trial, Mean: both detemir groups pooled; for body weight at End of trial, Mean: End of trial (16 weeks)
Protocol: A 16 week, multi-centre, multi-national, open, randomised three-group parallel study comparing administration of insulin detemir at 12-hour intervals, insulin detemir morning and bedtime and NPH morning and bedtime in patients with type 1 diabetes
All patients received insulin aspart at meals. The trial included a Screening Visit to assess patient's eligibility and a Randomisation Visit, followed by a treatment period 16 of weeks. A post-treatment follow-up Visit was carried out approximately 1 week after the last visit.
The study included 409 type 1 diabetic patients aged 18 or above and HbA1c≦12%. The patients had had diabetes >12 months and had been treated on a basal (twice daily)/bolus regimen ≧2 months using an intermediate/long-acting insulin as a basal insulin and fast-acting human insulin or insulin analogue as bolus insulin.

[4] = system: patients with type 1 diabetes; experiment: Example 5: 16-week three arm trial, insulin detemir morning and pre-dinner, insulin detemir morning and bedtime, NPH insulin morning and bedtime, insulin aspart with meals; assay type: in vivo, human; details: for body weight at Baseline, Mean / body weight at End of trial, Mean: both detemir groups pooled; for body weight at End of trial, Mean: End of trial (16 weeks)
Protocol: All patients received insulin aspart (IAsp) with meals. The trial included a Screening Visit to assess patient eligibility and a Randomisation Visit (maximum 2 weeks after the Screening Visit). The following 16 week treatment period included 5 visits. In addition, patients were contacted every second day in the first two weeks (or longer if necessary) to ensure that optimal basal insulin dose was achieved fast and smoothly. A post-treatment telephone Follow-up was performed approximately one week after the last visit.
The study included 400 type 1 diabetic patients aged 18 or above with a BMI of ≦[…] and HbA1c<12%. The patients had had diabetes ≧12 months and had been treated on a basal/bolus regimen ≧2 months with a basal insulin requirement of ≧30% of the total daily insulin dose, and a total daily basal insulin dose below 100 IU. Patients were to have no major diabetic complications or other significant diseases.

[5] = system: patients with type 1 diabetes; experiment: Example 2 b): 6-month extension trial (12 months of treatment), insulin detemir vs NPH insulin, IAsp as meal related insulin; assay type: in vivo, human; details: for ANOVA of weight after 12 months of treatment, ITT, Mean (least square mean): IAsp as meal related insulin; for body weight at End of trial, Mean: End of trial (12 months)
Text: A 6-month extension of a multi-centre, open-label, asymmetrically randomised, parallel trial.
Patients who agreed to participate in the extension period continued treatment without interruption.
Following completion of the 6-month initial period, the extension period included 3 visits (0, 3 and 6 months after the start of the extension period).
The patients were advised to maintain their usual diet and daily activities.
All patients who completed the 6-month treatment period in the trial described under Section a) above and who were able and willing to participate in the extension period were included. Thus, the Section b) trial included 316 patients.

[6] = system: patients with type 2 diabetes; experiment: Example 4: 6-month open parallel trial, insulin detemir vs NPH insulin once or twice daily, basal/bolus regimen with NovoRapid; assay type: in vivo, human; details: for ANOVA of weight after 6 months of treatment, ITT, Mean (least square mean): NovoRapid with meals; for body weight at End of trial, Mean: End of trial (6 months)
Text: Multicentre, open, randomised, parallel trial comprising a screening visit and a randomisation visit followed by a six month treatment period of basal/bolus therapy with either insulin detemir or NPH once or twice daily as needed. The patients received NovoRapid® with meals as bolus insulin throughout the trial.
The study included 506 type 2 diabetic patients aged 35 years or above with type 2 diabetes for ≧12 months treated with insulin or insulin analogues for at least 2 months, with a HbA1c≦12.0%, a basal insulin dose ≧30% of the total daily insulin dose and no other clinically relevant diseases were included in the trial.

[7] = system: patients with type 1 diabetes; details: for ANOVA of weight after 6 months of treatment, ITT, Mean (least square mean): insulin aspart as bolus; for HbA, levels: After 6 months; for plasma glucose at 07:00: nightly plasma glucose profile, p<0.05
Text: One of the secondary objectives of the study was to compare the regimens in terms of the safety profile, including the body weight of the patients.
The analysis is based upon an ANOVA model with treatment as fixed effect and weight at baseline as covariate.

[8] = system: patients with type 1 diabetes; experiment: Example 3: 6-month open-label parallel trial, once daily insulin detemir vs NPH insulin, basal/bolus regimen with human soluble insulin; assay type: in vivo; details: for ANOVA of weight after 6 months of treatment, ITT, Mean (least square mean): once daily basal, human soluble insulin at meals; for body weight at End of trial, Mean: End of trial (6 months)
Text: All patients were on a basal/bolus insulin regimen with human soluble insulin as meal-related insulin. […] The trial included a screening visit to assess patient eligibility and a randomisation visit (maximum 3 weeks after the screening visit) followed by a six-month treatment period. In order to achieve glycaemic control, the investigator had contact with the patients at least every other working day during the first two weeks of treatment or as long as necessary to achieve glycaemic control. A post-treatment follow-up visit was performed 2-6 days after the last visit.
The study included 750 type 1 diabetic patients aged 18 years or above and having a HbAtc≦12%. […] The patients were to have no major diabetic complications or other significant diseases.

[9] = system: adult patients with type 1 diabetes; details: in vivo
Text: as §1, §2

[10] = 16 weeks, Morn_Bed (morning and bedtime)
[11] = 12 months, difference between treatments
[12] = 12 months, not statistically significant
[13] = 6 months, difference between treatments

Substance: NPH insulin: comparator basal insulin in the trials [reference compound]
- ANOVA of weight after 12 months of treatment, ITT, Mean (least square mean) ([1]; 12 months): 76.9 kg
- weight gain ([1]; 12 months, statistically significant): 1.4 kg
- body weight at Baseline, Mean [1]: 75.8 kg
- body weight at End of trial, Mean [1]: 77.2 kg
- proportion of patients with serious adverse events ([1]; during 12 months): 13.4%
- average body weight gained during the trial ([2]; 6 months): 0.7 kg
- ANOVA of weight after 6 months of treatment, ITT, Mean (least square mean) ([2]; 6 months): 76.5 kg
- ANOVA of Weight after 16 Weeks of Treatment, Adjusted for Change in HbA1c, ITT, Mean (least square mean) [3, 10]: 76.04 kg
- average body weight gained ([3]; 16 weeks): 0.7 kg
- body weight at Baseline, Mean [3]: 74.5 kg
- body weight at End of trial, Mean [3]: 75.3 kg
- ANOVA of Weight after 16 Weeks of Treatment, Adjusted for Change in HbA1c, ITT, Mean (least square mean) [4, 10]: 76.40 kg
- body weight at Baseline, Mean [4]: 74.5 kg
- body weight at End of trial, Mean [4]: 75.3 kg
- average body weight gained during the trial ([5]; 12 months): 1.2 kg
- ANOVA of weight after 12 months of treatment, ITT, Mean (least square mean) ([5]; 12 months): 72.8 kg
- body weight at Baseline, Mean [5]: 71.5 kg
- body weight at End of trial, Mean [5]: 72.7 kg
- increase of mean body weight ([6]; 6 months): 1.3 kg
- ANOVA of weight after 6 months of treatment, ITT, Mean (least square mean) ([6]; 6 months): 88.6 kg
- body weight at Baseline, Mean [6]: 89.7 kg
- body weight at End of trial, Mean [6]: 91.0 kg
- ANOVA of weight after 6 months of treatment, ITT, Mean (least square mean) ([7]; 6 months): 71.8 kg
- HbA, levels [7]: 7.64%
- plasma glucose at 07:00 [7]: 9.5 mM/L
- average body weight gained ([7]; over 6 months): 0.7 kg
- average body weight gained during the trial ([8]; 6 months): 0.4 kg
- ANOVA of weight after 6 months of treatment, ITT, Mean (least square mean) ([8]; 6 months): 76.7 kg
- body weight at Baseline, Mean [8]: 76.1 kg
- body weight at End of trial, Mean [8]: 76.5 kg

Substance: N^εB29-tetradecanoyl des(B30) human insulin [Insulin detemir]
- proportion of patients with serious adverse events [9]: 9.1%
- risk of hypoglycemia during the night, relative risk (detemir/NPH) [9]: 0.71
- ANOVA of weight after 12 months, insulin detemir − NPH, Mean [1, 11]: -1.66 kg
- ANOVA of weight after 12 months of treatment, ITT, Mean (least square mean) ([1]; 12 months): 75.2 kg
- weight loss [1, 12]: 0.3 kg
- body weight at Baseline, Mean [1]: 76.6 kg
- body weight at End of trial, Mean [1]: 76.3 kg
- HbA1c ([1]; after 12 months of treatment): 7.9%
- difference in body weight between groups ([1]; after 12 months of treatment, p=0.002): 1.7 kg
- 9-point blood glucose profiles, insulin detemir and NPH ([2]; 6 months): comparable
- average body weight lost during the trial ([2]; 6 months): 0.5 kg
- ANOVA of weight after 6 months of treatment, ITT, Mean (least square mean) ([2]; 6 months): 75.4 kg
- HbA1c absolute mean difference between treatments (insulin detemir-NPH) ([2]; after 6 months, 95% CI [−0.05, 0.22]): 0.08 % point
- number of patients with hypoglycaemic episodes between the two treatments ([2]; in vivo): not statistically significantly different
- safety profiles between the two treatments ([2]; in vivo): comparable
- intra-patient variation in fasting blood glucose (FBG) vs NPH ([2]; not statistically significant, p=0.06): tendency towards lower intra-patient variation
- difference in FPG between treatments ([2]; p=0.78): No statistically significant difference
- Weight, Pairwise Comparison, Mean Diff. Detemir Morn_Bed - NPH Morn_Bed ([3]; 16 weeks): -0.6 kg
- ANOVA of Weight after 16 Weeks of Treatment, Adjusted for Change in HbA1c, ITT, Mean (least square mean) ([3]; 16 weeks, 12 h_interval): 75.20 kg
- average change of body weight ([3]; 16 weeks, 12 h_interval group): maintained their weight
- ANOVA of Weight after 16 Weeks of Treatment, Adjusted for Change in HbA1c, ITT, Mean (least square mean) [3, 10]: 75.41 kg
- average body weight gained ([3]; 16 weeks): 0.2 kg
- Weight, Pairwise Comparison, Mean Diff. Detemir 12 h_interval - NPH Morn_Bed ([3]; 16 weeks, first comparison, p=0.0061): -0.8 kg
- Weight, Pairwise Comparison, Mean Diff. Detemir 12 h_interval - NPH Morn_Bed ([3]; 16 weeks, third comparison as printed, p=0.4772): -0.2 kg
- body weight at Baseline, Mean [3]: 76.3 kg
- body weight at End of trial, Mean [3]: 76.2 kg
- Weight, Pairwise Comparison, Mean Difference Detemir Morn_Bed - NPH Morn_Bed ([4]; 16 weeks): -0.6 kg
- Weight, Pairwise Comparison, Mean Difference Detemir Morn_Dinner - Detemir Morn_Bed ([4]; 16 weeks): -0.7 kg
- Weight, Pairwise Comparison, Mean Difference Detemir Morn_Dinner - NPH Morn_Bed ([4]; 16 weeks): -1.3 kg
- ANOVA of Weight after 16 Weeks of Treatment, Adjusted for Change in HbA1c, ITT, Mean (least square mean) [4, 10]: 75.81 kg
- ANOVA of Weight after 16 Weeks of Treatment, Adjusted for Change in HbA1c, ITT, Mean (least square mean) ([4]; 16 weeks, Morn_Dinner (morning and pre-dinner)): 75.12 kg
- Weight in both insulin detemir groups compared with NPH insulin ([4]; 16 weeks, statistically significant): lower
- body weight at Baseline, Mean [4]: 76.3 kg
- body weight at End of trial, Mean [4]: 76.2 kg
- ANOVA of weight after 12 months of treatment, ITT, Mean (least square mean) ([5]; 12 months): 71.5 kg
- ANOVA of weight after 12 months, insulin detemir − NPH, Mean [5, 11]: -1.34 kg
- average body weight lost during the trial [5, 12]: 0.1 kg
- body weight at Baseline, Mean [5]: 71.4 kg
- body weight at End of trial, Mean [5]: 71.3 kg
- difference in body weight between the groups ([5]; after 12 months, statistically significant): 1.3 kg
- increase of mean body weight ([6]; 6 months): 0.4 kg
- ANOVA of weight after 6 months of treatment, ITT, Mean (least square mean) ([6]; 6 months): 87.8 kg
- ANOVA of weight after 6 months, insulin detemir − NPH, Mean [6, 13]: -0.79 kg
- body weight at Baseline, Mean [6]: 85.4 kg
- body weight at End of trial, Mean [6]: 85.8 kg
- ANOVA of weight after 6 months of treatment, ITT, Mean (least square mean) ([7]; 6 months): 70.9 kg
- Fasting plasma glucose difference, insulin detemir vs NPH insulin ([7]; 6 months, not statistically significant, p=0.097): -0.76 mM
- difference in mean body weight between the groups ([7]; 6 months, statistically significant): 1 kg
- HbA, levels [7]: 7.60%
- Body weight (baseline adjusted) vs NPH insulin ([7]; at the end of the trial, p<0.001): significantly lower
- general safety profile between the two treatments ([7]; in vivo): similar
- plasma glucose at 07:00 [7]: 7.6 mM/L
- average body weight lost ([7]; over 6 months, not statistically significant): 0.2 kg
- shapes of the nightly plasma glucose profiles vs NPH insulin ([7]; p=0.05): smoother and more stable
- average body weight lost during the trial ([8]; 6 months): 0.2 kg
- ANOVA of weight after 6 months, insulin detemir − NPH, Mean [8, 13]: -0.52 kg
- ANOVA of weight after 6 months of treatment, ITT, Mean (least square mean) ([8]; 6 months): 76.2 kg
- body weight at Baseline, Mean [8]: 76.5 kg
- body weight at End of trial, Mean [8]: 76.3 kg
